Assays:
[1] = target: Fibroblast growth factor receptor 4 (Homo sapiens) (UniProt P22455); assay: Inhibition of human FGFR4 catalytic domain expressed in baculovirus assessed as substrate phosphorylation using fluorescence-labelled peptides as substrate at 0.06 uM after 90 mins by microfluidic peptide phosphorylation assay
[2] = target: T1, Protein kinase C zeta type (Homo sapiens) (UniProt Q05513); assay: Inhibition of human full length PKC zeta expressed in baculovirus assessed as substrate phosphorylation using fluorescence-labelled peptides as substrate at 420 uM after 90 mins by microfluidic peptide phosphorylation assay
T1 sequence (whole entry): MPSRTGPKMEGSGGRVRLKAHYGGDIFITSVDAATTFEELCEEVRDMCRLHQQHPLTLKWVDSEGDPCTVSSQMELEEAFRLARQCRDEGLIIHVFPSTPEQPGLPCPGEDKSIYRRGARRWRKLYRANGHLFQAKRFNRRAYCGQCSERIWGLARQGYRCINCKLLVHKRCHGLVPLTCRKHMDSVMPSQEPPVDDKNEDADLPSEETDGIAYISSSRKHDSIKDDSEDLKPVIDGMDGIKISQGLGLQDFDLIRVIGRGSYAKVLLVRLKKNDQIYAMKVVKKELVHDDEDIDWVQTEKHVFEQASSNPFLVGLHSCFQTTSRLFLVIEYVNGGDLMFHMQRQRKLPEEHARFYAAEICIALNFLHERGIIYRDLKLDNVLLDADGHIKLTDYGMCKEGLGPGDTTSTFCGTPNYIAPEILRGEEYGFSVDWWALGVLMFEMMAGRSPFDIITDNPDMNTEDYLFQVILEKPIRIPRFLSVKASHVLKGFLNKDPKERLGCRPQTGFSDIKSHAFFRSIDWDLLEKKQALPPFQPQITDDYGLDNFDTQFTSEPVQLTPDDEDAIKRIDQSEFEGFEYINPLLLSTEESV

[3] = target: T2, Serine/threonine-protein kinase D1 (Homo sapiens) (UniProt Q15139); assay: Inhibition of human full length PKD1 expressed in baculovirus assessed as substrate phosphorylation using fluorescence-labelled peptides as substrate at […] after 90 mins by microfluidic peptide phosphorylation assay
T2 sequence (whole entry): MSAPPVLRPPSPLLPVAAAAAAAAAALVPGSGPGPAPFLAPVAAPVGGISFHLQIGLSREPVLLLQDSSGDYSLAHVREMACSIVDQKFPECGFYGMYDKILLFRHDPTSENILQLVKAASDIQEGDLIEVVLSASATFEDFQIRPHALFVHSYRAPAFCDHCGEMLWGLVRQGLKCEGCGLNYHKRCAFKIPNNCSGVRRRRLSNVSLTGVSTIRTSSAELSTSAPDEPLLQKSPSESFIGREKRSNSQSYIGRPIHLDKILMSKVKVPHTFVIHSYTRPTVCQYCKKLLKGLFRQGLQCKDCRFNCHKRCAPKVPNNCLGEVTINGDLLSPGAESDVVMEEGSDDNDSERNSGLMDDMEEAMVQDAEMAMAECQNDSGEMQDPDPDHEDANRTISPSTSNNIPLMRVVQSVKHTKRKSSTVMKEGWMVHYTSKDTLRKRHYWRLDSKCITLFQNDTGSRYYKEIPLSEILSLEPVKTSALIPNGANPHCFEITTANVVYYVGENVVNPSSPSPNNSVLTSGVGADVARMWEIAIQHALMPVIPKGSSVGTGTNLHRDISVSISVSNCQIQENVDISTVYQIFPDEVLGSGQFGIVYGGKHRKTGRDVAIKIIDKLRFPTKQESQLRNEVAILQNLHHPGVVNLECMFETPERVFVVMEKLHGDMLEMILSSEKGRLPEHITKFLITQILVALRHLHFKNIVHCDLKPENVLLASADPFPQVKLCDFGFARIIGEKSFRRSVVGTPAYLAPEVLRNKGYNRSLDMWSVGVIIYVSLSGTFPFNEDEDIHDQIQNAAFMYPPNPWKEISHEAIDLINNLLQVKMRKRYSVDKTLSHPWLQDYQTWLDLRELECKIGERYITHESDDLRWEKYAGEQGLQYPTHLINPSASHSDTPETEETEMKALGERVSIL

[4] = target: Protein kinase C delta type (Homo sapiens) (UniProt Q05655); assay: Inhibition of human truncated PKC delta expressed in baculovirus assessed as substrate phosphorylation using fluorescence-labelled peptides as substrate at 95 uM after 90 mins by microfluidic peptide phosphorylation assay
Sequence of Protein kinase C delta type (Homo sapiens) (Q05655 whole entry, looked up, the tested form may be a part): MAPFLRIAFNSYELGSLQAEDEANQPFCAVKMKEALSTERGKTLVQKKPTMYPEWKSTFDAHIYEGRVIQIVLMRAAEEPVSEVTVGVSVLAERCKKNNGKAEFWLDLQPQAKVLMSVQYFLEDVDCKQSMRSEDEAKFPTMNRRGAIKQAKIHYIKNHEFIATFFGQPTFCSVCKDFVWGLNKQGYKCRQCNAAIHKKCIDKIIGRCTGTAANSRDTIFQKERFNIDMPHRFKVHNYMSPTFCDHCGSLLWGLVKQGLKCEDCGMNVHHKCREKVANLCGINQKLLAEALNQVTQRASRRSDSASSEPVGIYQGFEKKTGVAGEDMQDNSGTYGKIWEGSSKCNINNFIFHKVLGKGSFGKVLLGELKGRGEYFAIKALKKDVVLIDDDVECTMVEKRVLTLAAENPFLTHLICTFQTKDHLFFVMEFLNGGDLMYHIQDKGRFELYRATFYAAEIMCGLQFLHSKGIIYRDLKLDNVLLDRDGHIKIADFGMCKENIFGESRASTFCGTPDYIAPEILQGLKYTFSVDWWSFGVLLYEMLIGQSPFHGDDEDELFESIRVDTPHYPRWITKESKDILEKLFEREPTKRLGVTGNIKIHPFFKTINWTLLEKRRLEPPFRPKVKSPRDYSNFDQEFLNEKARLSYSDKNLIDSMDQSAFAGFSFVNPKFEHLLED

[5] = target: T3, Calcium/calmodulin-dependent protein kinase type IV (Homo sapiens) (UniProt Q16566); assay: Inhibition of human full length CAMK4 expressed in baculovirus assessed as substrate phosphorylation using fluorescence-labelled peptides as substrate at 1000 uM after 90 mins by microfluidic peptide phosphorylation assay
T3 sequence (whole entry): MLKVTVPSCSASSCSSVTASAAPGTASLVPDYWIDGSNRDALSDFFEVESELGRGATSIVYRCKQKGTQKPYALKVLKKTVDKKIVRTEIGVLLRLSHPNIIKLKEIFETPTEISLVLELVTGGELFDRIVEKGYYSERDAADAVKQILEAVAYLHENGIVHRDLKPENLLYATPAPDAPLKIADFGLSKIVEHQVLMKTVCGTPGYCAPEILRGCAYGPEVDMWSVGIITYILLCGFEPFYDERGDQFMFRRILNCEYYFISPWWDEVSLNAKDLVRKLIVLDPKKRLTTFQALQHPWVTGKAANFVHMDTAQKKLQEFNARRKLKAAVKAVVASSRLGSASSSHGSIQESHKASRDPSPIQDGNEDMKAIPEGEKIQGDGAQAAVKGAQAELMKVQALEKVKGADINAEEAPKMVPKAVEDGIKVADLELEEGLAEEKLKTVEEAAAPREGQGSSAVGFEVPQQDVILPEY

Sequence of Fibroblast growth factor receptor 4 (Homo sapiens) (P22455 22-802 limits assumed): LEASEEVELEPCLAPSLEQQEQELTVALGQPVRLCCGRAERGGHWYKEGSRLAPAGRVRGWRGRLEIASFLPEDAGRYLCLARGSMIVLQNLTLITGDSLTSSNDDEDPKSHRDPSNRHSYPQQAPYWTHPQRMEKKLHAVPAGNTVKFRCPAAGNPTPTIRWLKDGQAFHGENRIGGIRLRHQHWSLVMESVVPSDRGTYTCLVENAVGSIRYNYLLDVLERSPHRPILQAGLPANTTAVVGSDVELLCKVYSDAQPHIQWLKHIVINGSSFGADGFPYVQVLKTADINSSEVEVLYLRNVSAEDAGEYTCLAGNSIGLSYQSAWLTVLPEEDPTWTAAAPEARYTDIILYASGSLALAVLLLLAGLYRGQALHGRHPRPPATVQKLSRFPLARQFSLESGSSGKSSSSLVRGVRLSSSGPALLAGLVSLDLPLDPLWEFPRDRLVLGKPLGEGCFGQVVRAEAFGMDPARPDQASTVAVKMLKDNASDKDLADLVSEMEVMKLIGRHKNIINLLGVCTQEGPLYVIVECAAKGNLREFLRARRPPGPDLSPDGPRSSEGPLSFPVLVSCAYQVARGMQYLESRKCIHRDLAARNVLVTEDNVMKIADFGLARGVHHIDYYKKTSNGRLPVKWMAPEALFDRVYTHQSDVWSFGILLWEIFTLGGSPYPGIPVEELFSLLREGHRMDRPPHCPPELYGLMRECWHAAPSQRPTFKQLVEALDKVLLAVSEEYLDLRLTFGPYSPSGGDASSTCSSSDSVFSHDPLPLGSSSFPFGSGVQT

NC1(Cc2ccc(Cl)cc2)CCN(c2ncnc3[nH]ccc23)CC1
inhibition [1]: 2%

c1nc(N2CCOCC2)c2nc[nH]c2n1
inhibition [2]: 46%

COC(=O)c1cnc(Nc2cnc(C#N)cn2)cc1NCC1CCNCC1
inhibition [3]: 3%

NCCc1ccc(-c2ncnc3[nH]cnc23)cc1
inhibition [4]: 72%

c1cnc2[nH]ccc2c1
inhibition [5]: 52%

Source: ChEMBL document CHEMBL3132769, “Fragment growing to retain or alter the selectivity of anchored kinase hinge-binding fragments” (Medchemcomm, 2014)
